The results in this text go back to US10202378B2, “Therapeutic compounds and uses thereof” (GENENTECH, INC., priority 2015, dated 2019).

Structures are written as SMILES. pIC50: −log10 of the molar value.

In test [1] the target is TAF1-BD2 (Homo sapiens, UniProt P21675). The test can be described thus: TAF1-BD2 TR-FRET Binding Assay. The conditions noted are these: read-out: TAF1-BD2 HTRF IC50.
The target of test [2] is TAF1-BD1 (Homo sapiens, UniProt P21675). In words: TAF1-BD1 TR-FRET Binding Assay. The conditions noted are these: read-out: TAF1-BD1 HTRF IC50.

For the compound `Cc1cccc(COC(=O)c2c(C)[nH]c3c(=O)n(C)cc(C#CC(C)(C)O)c23)c1` [Example 118, m-tolylmethyl 4-(3-hydroxy-3-methyl-but-1-ynyl)-2,6-dimethyl-7-oxo-1H-pyrrolo[2,3-c]pyridine-3-carboxylate], the pIC50 was 7.41 in test [1] and 6.78 in test [2].

`Cc1[nH]c2c(=O)n(C)cc(C#CC(C)(C)O)c2c1C(=O)OCc1ccccc1F` [Example 119, (2-fluorophenyl)methyl 4-(3-hydroxy-3-methyl-but-1-ynyl)-2,6-dimethyl-7-oxo-1H-pyrrolo[2,3-c]pyridine-3-carboxylate]: the pIC50 was 7.57 in test [1] and 6.84 in test [2].

Turning to `Cc1[nH]c2c(=O)n(C)cc(C#CC(C)(C)O)c2c1C(=O)OC(C)c1ccccc1` (stereo not shown) [Example 120, 1-phenylethyl 4-(3-hydroxy-3-methyl-but-1-ynyl)-2,6-dimethyl-7-oxo-1H-pyrrolo[2,3-c]pyridine-3-carboxylate], the pIC50 was 7.08 in test [1] and 6.59 in test [2].

Take `Cc1ccccc1COC(=O)c1c(C)[nH]c2c(=O)n(C)cc(C#CC(C)(C)O)c12` [Example 121, o-tolylmethyl 4-(3-hydroxy-3-methyl-but-1-ynyl)-2,6-dimethyl-7-oxo-1H-pyrrolo[2,3-c]pyridine-3-carboxylate]: the pIC50 in test [1] was 7.67; in test [2], 7.07.

On to `C=CCCn1cc(C#CC(C)(O)C2CC2)c2c(C(=O)OCC(C)C)c(C)[nH]c2c1=O` (stereo not shown) [Example 122, isobutyl 6-but-3-enyl-4-(3-cyclopropyl-3-hydroxy-but-1-ynyl)-2-methyl-7-oxo-1H-pyrrolo[2,3-c]pyridine-3-carboxylate], for which the pIC50 was 6.94 in test [1] and 5.77 in test [2].

On to `C=CCCn1cc(C#C[C@@](C)(O)c2cc(C)on2)c2c(C(=O)OCc3ccccc3C)c(C)[nH]c2c1=O` [Example 123, o-tolylmethyl 6-but-3-enyl-4-[(3R)-3-hydroxy-3-(5-methylisoxazol-3-yl)but-1-ynyl]-2-methyl-7-oxo-1H-pyrrolo[2,3-c]pyridine-3-carboxylate], for which the values for the pIC50 in test [1] and in test [2] were 6.61 and less than 4.70, respectively.

For `C=CCCn1cc(C#CC(C)(C)O)c2c(C(=O)OCc3ccccc3C)c(C)[nH]c2c1=O` [Example 124, o-tolylmethyl 6-but-3-enyl-4-(3-hydroxy-3-methyl-but-1-ynyl)-2-methyl-7-oxo-1H-pyrrolo[2,3-c]pyridine-3-carboxylate], the pIC50 in test [1] was 7.22; in test [2], less than 4.70.

On to `C=CCCn1cc(C#C[C@@](C)(O)c2cc(C)on2)c2c(C(=O)OCC(C)C)c(C)[nH]c2c1=O` [Example 125, isobutyl 6-but-3-enyl-4-[(3R)-3-hydroxy-3-(5-methylisoxazol-3-yl)but-1-ynyl]-2-methyl-7-oxo-1H-pyrrolo[2,3-c]pyridine-3-carboxylate], for which the pIC50 in test [1] is 6.77; in test [2], 5.52.

Turning to `Cc1[nH]c2c(=O)n(C)cc(C#CC(C)(O)C3CC3)c2c1C(=O)OCC(C)C` (stereo not shown) [Example 126, isobutyl 4-(3-cyclopropyl-3-hydroxy-but-1-ynyl)-2,6-dimethyl-7-oxo-1H-pyrrolo[2,3-c]pyridine-3-carboxylate], the pIC50 was 7.40 in test [1] and 6.91 in test [2].

As to `Cc1[nH]c2c(=O)n(C)cc(C#CC(C)(O)CO)c2c1C(=O)OCC(C)C` (stereo not shown) [Example 127, isobutyl 4-(3,4-dihydroxy-3-methyl-but-1-ynyl)-2,6-dimethyl-7-oxo-1H-pyrrolo[2,3-c]pyridine-3-carboxylate], the pIC50 was 7.16 in test [1] and 6.14 in test [2].

On to `Cc1[nH]c2c(=O)n(C)cc(C#CC(C)(O)C(C)C)c2c1C(=O)OCC(C)C` (stereo not shown) [Example 128, isobutyl 4-(3-hydroxy-3,4-dimethyl-pent-1-ynyl)-2,6-dimethyl-7-oxo-1H-pyrrolo[2,3-c]pyridine-3-carboxylate], for which the pIC50 in test [1] is 7.21; in test [2], 6.60.

Turning to `Cc1[nH]c2c(=O)n(C)cc(C#CC(O)(c3ccccc3)C(F)(F)F)c2c1C(=O)OCC(C)C` (stereo not shown) [Example 130, isobutyl 2,6-dimethyl-7-oxo-4-(4,4,4-trifluoro-3-hydroxy-3-phenyl-but-1-ynyl)-1H-pyrrolo[2,3-c]pyridine-3-carboxylate], the figures for the pIC50 in test [1] and in test [2] were 6.55 and 5.81, respectively.

As for `Cc1[nH]c2c(=O)n(C)cc(C#CC(C)(C)O)c2c1C(=O)OCC(C)C` [Example 132, isobutyl 4-(3-hydroxy-3-methyl-but-1-ynyl)-2,6-dimethyl-7-oxo-1H-pyrrolo[2,3-c]pyridine-3-carboxylate], the figures for the pIC50 in test [1] and in test [2] were 7.52 and 6.76, respectively.

Turning to `Cc1[nH]c2c(=O)n(C)cc(C#CC(C)(C)O)c2c1C(=O)OC(C)(C)C` [Example 133, tert-butyl 4-(3-hydroxy-3-methyl-but-1-ynyl)-2,6-dimethyl-7-oxo-1H-pyrrolo[2,3-c]pyridine-3-carboxylate], the pIC50 in test [1] is 7.51; in test [2], 6.51.

On to `Cc1[nH]c2c(=O)n(C)cc(C#CC(C)(O)C3CC3)c2c1C(=O)OC(C)(C)CC#N` (stereo not shown) [Example 134, (2-cyano-1,1-dimethyl-ethyl)-4-(3-cyclopropyl-3-hydroxy-but-1-ynyl)-2,6-dimethyl-7-oxo-1H-pyrrolo[2,3-c]pyridine-3-carboxylate], for which the pIC50 in test [1] was 7.57; in test [2], 6.65.

`CC(=O)NCCCOC(=O)c1c(C)[nH]c2c(=O)n(C)cc(C#CC(O)(c3ccccc3)C(F)(F)F)c12` (stereo not shown) [Example 135, 3-acetamidopropyl 2,6-dimethyl-7-oxo-4-(4,4,4-trifluoro-3-hydroxy-3-phenyl-but-1-ynyl)-1H-pyrrolo[2,3-c]pyridine-3-carboxylate]: the figures for the pIC50 in test [1] and in test [2] were 7.39 and 6.53, respectively.

Turning to `Cc1[nH]c2c(=O)n(C)cc(C#CC(O)(c3ccccc3)C(F)(F)F)c2c1C(=O)OC(C)(C)CC#N` (stereo not shown) [Example 136, (2-cyano-1,1-dimethyl-ethyl) 2,6-dimethyl-7-oxo-4-(4,4,4-trifluoro-3-hydroxy-3-phenyl-but-1-ynyl)-1H-pyrrolo[2,3-c]pyridine-3-carboxylate], the figures for the pIC50 in test [1] and in test [2] were 7.44 and 6.57, respectively.

For the compound `CCCCC(C)(C)OC(=O)c1c(C)[nH]c2c(=O)n(C)cc(C#CC(C)(O)C3CC3)c12` (stereo not shown) [Example 137, 1,1-dimethylpentyl 4-(3-cyclopropyl-3-hydroxy-but-1-ynyl)-2,6-dimethyl-7-oxo-1H-pyrrolo[2,3-c]pyridine-3-carboxylate], the pIC50 in test [1] is 7.10; in test [2], 6.32.

Turning to `CCC(C)(C)OC(=O)c1c(C)[nH]c2c(=O)n(C)cc(C#C[C@@](C)(O)c3cc(C)on3)c12` [Example 139, 1,1-dimethylpropyl 4-[(3R)-3-hydroxy-3-(5-methylisoxazol-3-yl)but-1-ynyl]-2,6-dimethyl-7-oxo-1H-pyrrolo[2,3-c]pyridine-3-carboxylate], the pIC50 in test [1] is 7.32; in test [2], 6.63.

Take `Cc1[nH]c2c(=O)n(C)cc(C#CC(C)(O)C3CC3)c2c1C(=O)OC(C)C(C)C` (stereo not shown) [Example 141, 1,2-dimethylpropyl 4-(3-cyclopropyl-3-hydroxy-but-1-ynyl)-2,6-dimethyl-7-oxo-1H-pyrrolo[2,3-c]pyridine-3-carboxylate]: the pIC50 in test [1] is 7.12; in test [2], 6.61.
